Results taken from ChEMBL document CHEMBL4507297, “Data for DCP probe PF-04457845” (2021).

Experiments:
[1] = molecular target: 5'-AMP-activated protein kinase catalytic subunit alpha-2 (Homo sapiens) (UniProt P54646); conditions: Compound concentration 1000.0 nM
[2] = tested on: Tyrosine-protein kinase ABL1 (Homo sapiens), P00519 [T315I]; conditions: Compound concentration 1000.0 nM
[3] = molecular target: Tyrosine-protein kinase ZAP-70 (Homo sapiens) (UniProt P43403); conditions: Compound concentration 1000.0 nM
[4] = molecular target: Aurora kinase C (Homo sapiens) (UniProt Q9UQB9); conditions: Compound concentration 1000.0 nM
[5] = molecular target: Tyrosine-protein kinase receptor TYRO3 (Homo sapiens) (UniProt Q06418); conditions: Compound concentration 1000.0 nM
[6] = molecular target: Atypical kinase COQ8A, mitochondrial (Homo sapiens) (UniProt Q8NI60); conditions: Compound concentration 1000.0 nM
[7] = molecular target: Mitogen-activated protein kinase 9 (Homo sapiens) (UniProt P45984); conditions: Compound concentration 1000.0 nM
[8] = molecular target: Tyrosine-protein kinase Fes/Fps (Homo sapiens) (UniProt P07332); conditions: Compound concentration 1000.0 nM
[9] = molecular target: T1, Alpha-2A adrenergic receptor (Homo sapiens) (UniProt P08913); conditions: Compound concentration 10.0 uM
T1 sequence (whole entry): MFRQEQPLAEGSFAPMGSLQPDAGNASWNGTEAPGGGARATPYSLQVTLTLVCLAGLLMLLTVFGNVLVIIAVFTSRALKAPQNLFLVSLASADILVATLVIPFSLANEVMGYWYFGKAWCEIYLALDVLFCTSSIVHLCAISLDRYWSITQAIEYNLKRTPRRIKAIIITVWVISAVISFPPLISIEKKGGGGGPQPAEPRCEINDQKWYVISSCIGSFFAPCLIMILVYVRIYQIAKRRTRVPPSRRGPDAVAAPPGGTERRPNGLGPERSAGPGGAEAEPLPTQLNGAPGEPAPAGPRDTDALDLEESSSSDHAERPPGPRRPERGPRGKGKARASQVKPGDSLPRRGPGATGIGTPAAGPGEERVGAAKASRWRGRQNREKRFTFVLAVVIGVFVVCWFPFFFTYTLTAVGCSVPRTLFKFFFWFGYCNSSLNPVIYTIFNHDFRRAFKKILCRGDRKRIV

[10] = molecular target: Serine/threonine-protein kinase PLK3 (Homo sapiens) (UniProt Q9H4B4); conditions: Compound concentration 1000.0 nM
[11] = molecular target: Serine/threonine-protein kinase 3 (Homo sapiens) (UniProt Q13188); conditions: Compound concentration 1000.0 nM
[12] = molecular target: Receptor-interacting serine/threonine-protein kinase 2 (Homo sapiens) (UniProt O43353); conditions: Compound concentration 1000.0 nM
[13] = molecular target: Tyrosine-protein kinase receptor UFO (Homo sapiens) (UniProt P30530); conditions: Compound concentration 1000.0 nM
[14] = molecular target: T2, Muscarinic acetylcholine receptor M1 (Homo sapiens) (UniProt P11229); conditions: Compound concentration 10.0 uM
T2 sequence (whole entry): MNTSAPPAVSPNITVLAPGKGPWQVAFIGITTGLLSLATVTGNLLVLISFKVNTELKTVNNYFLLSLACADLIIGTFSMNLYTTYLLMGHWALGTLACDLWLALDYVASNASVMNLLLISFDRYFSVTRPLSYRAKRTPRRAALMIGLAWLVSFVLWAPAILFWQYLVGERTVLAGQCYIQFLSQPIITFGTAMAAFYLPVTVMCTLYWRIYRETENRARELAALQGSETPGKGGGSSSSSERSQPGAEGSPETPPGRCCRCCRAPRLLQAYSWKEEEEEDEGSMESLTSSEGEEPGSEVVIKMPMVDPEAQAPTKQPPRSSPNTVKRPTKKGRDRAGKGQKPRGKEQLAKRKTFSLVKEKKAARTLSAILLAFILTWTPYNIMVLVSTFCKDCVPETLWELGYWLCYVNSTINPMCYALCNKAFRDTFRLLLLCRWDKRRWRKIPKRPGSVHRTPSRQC

[15] = molecular target: Serine/threonine-protein kinase WNK2 (Homo sapiens) (UniProt Q9Y3S1); conditions: Compound concentration 1000.0 nM
[16] = molecular target: Homeodomain-interacting protein kinase 1 (Homo sapiens) (UniProt Q86Z02); conditions: Compound concentration 1000.0 nM
[17] = molecular target: Ephrin type-A receptor 3 (Homo sapiens) (UniProt P29320); conditions: Compound concentration 1000.0 nM
[18] = molecular target: Non-receptor tyrosine-protein kinase TNK1 (Homo sapiens) (UniProt Q13470); conditions: Compound concentration 1000.0 nM
[19] = molecular target: Phosphatidylinositol 4,5-bisphosphate 3-kinase catalytic subunit gamma isoform (Homo sapiens) (UniProt P48736); conditions: Compound concentration 1000.0 nM
[20] = tested on: Receptor-type tyrosine-protein kinase FLT3 (Homo sapiens), P36888 [D835H]; conditions: Compound concentration 1000.0 nM
[21] = molecular target: T3, Muscarinic acetylcholine receptor M2 (Homo sapiens) (UniProt P08172); conditions: Compound concentration 10.0 uM
T3 sequence (whole entry): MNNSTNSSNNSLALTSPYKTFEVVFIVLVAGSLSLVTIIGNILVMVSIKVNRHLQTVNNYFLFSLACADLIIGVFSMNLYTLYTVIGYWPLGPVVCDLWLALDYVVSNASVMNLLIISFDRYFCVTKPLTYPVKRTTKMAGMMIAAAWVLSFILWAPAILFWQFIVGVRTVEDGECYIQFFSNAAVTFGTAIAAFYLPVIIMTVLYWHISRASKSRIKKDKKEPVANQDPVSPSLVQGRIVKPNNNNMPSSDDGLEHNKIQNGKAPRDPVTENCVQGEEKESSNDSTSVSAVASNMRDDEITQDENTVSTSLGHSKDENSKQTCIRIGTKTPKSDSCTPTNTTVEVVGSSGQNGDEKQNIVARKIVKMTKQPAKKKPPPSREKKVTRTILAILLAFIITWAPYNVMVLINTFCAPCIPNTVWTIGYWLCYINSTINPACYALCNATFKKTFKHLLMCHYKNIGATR

[22] = molecular target: Mitogen-activated protein kinase kinase kinase kinase 4 (Homo sapiens) (UniProt O95819); conditions: Compound concentration 1000.0 nM
[23] = molecular target: Cyclin-dependent kinase-like 5 (Homo sapiens) (UniProt O76039); conditions: Compound concentration 1000.0 nM
[24] = molecular target: Myosin light chain kinase, smooth muscle (Homo sapiens) (UniProt Q15746); conditions: Compound concentration 1000.0 nM
[25] = molecular target: NT-3 growth factor receptor (Homo sapiens) (UniProt Q16288); conditions: Compound concentration 1000.0 nM
[26] = tested on: Epidermal growth factor receptor (Homo sapiens), P00533 [G719C]; conditions: Compound concentration 1000.0 nM

Sequence of Tyrosine-protein kinase receptor TYRO3 (Homo sapiens) (Q06418 whole entry): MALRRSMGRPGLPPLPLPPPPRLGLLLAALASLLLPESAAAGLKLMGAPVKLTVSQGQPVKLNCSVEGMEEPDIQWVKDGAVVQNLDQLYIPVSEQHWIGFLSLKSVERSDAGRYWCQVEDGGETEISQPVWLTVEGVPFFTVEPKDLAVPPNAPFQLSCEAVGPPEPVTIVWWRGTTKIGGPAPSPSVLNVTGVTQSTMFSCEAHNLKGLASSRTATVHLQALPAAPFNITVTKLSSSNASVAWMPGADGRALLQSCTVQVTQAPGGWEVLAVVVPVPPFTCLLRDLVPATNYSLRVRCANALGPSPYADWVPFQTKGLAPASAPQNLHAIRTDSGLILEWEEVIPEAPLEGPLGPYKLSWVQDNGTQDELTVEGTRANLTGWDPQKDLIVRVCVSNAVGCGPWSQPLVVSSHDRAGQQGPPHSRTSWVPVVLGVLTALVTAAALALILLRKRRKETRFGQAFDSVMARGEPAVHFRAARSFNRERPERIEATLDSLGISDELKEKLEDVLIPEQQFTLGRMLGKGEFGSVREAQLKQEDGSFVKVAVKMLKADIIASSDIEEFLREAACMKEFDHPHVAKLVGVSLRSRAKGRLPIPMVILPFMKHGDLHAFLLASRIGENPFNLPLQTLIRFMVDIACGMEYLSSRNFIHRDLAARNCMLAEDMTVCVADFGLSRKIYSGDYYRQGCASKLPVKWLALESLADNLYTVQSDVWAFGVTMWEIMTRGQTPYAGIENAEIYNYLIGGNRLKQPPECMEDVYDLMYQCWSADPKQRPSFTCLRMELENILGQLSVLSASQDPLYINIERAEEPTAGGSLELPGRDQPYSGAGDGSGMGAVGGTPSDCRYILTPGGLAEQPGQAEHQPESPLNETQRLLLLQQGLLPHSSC
Sequence of Mitogen-activated protein kinase kinase kinase kinase 4 (Homo sapiens) (O95819 2-1239 limits assumed): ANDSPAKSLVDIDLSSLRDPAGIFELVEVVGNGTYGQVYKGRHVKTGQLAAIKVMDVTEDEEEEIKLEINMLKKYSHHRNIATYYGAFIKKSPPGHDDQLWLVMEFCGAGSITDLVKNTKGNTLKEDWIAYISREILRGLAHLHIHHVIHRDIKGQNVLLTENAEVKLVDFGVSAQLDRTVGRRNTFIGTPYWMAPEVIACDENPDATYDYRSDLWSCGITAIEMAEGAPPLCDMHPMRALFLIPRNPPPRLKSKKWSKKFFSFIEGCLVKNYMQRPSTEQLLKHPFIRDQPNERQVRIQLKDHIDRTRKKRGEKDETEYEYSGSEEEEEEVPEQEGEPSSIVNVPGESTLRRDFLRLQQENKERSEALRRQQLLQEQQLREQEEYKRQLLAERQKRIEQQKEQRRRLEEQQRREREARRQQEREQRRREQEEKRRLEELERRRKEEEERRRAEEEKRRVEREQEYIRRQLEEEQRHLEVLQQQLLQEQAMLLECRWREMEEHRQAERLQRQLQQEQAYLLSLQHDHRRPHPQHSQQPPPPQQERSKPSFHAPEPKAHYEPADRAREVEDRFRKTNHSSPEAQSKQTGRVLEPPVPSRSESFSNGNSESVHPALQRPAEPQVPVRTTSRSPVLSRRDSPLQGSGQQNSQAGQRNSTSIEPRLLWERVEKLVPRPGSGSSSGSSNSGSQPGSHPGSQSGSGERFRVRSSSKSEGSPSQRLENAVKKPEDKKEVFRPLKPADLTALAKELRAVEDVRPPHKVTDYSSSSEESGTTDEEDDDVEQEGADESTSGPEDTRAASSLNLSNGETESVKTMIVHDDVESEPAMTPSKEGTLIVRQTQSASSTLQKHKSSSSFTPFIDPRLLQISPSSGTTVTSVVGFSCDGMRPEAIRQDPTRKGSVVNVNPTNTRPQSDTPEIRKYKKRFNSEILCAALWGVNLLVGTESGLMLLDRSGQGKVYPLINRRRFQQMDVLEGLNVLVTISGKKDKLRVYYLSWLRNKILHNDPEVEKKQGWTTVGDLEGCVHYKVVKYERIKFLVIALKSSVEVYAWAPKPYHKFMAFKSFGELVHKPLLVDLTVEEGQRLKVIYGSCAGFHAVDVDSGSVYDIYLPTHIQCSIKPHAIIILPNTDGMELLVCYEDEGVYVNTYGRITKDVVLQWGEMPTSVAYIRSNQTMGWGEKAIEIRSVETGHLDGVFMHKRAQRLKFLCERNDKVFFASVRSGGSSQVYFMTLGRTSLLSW
Sequence of Cyclin-dependent kinase-like 5 (Homo sapiens) (O76039 whole entry): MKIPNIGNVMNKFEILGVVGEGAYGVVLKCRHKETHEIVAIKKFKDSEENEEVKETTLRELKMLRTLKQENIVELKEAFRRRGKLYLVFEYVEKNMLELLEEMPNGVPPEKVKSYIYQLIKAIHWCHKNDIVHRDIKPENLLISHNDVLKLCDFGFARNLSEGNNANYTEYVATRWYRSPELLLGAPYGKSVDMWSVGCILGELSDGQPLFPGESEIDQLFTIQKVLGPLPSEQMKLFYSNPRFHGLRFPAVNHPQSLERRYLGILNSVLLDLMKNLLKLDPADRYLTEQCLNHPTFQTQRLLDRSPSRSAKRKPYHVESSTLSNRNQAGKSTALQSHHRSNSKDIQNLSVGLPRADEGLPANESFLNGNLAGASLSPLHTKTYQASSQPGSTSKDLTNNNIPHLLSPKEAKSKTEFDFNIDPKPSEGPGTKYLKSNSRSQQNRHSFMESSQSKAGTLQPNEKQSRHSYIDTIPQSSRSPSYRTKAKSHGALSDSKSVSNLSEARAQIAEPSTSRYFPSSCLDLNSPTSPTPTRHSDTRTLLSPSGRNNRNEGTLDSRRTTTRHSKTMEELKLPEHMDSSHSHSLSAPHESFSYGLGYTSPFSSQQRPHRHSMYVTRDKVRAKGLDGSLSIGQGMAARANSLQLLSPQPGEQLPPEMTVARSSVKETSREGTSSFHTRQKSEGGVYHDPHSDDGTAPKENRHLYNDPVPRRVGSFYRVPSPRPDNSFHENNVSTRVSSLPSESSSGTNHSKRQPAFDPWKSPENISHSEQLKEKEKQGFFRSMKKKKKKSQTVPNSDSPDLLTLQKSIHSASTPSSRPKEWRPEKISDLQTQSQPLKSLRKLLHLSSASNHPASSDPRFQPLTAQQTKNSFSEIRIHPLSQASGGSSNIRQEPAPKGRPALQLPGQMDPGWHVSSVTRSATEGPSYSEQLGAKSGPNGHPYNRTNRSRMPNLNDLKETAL
Sequence of 5'-AMP-activated protein kinase catalytic subunit alpha-2 (Homo sapiens) (P54646 whole entry, looked up): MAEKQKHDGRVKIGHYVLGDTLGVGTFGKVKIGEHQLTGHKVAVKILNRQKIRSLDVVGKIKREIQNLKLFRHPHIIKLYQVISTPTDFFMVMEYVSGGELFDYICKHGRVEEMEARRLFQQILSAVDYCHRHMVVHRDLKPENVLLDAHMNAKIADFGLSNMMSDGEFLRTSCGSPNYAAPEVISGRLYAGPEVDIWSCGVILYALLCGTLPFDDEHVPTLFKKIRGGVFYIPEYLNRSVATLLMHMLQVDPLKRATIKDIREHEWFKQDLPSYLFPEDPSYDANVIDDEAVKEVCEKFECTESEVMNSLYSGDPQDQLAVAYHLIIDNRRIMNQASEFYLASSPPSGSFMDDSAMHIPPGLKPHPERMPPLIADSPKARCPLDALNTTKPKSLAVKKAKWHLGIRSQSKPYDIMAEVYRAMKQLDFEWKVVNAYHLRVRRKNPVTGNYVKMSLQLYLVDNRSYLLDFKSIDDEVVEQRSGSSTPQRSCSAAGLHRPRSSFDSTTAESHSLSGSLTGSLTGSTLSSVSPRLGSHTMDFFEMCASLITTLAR
Sequence of Non-receptor tyrosine-protein kinase TNK1 (Homo sapiens) (Q13470 whole entry, canonical isoform): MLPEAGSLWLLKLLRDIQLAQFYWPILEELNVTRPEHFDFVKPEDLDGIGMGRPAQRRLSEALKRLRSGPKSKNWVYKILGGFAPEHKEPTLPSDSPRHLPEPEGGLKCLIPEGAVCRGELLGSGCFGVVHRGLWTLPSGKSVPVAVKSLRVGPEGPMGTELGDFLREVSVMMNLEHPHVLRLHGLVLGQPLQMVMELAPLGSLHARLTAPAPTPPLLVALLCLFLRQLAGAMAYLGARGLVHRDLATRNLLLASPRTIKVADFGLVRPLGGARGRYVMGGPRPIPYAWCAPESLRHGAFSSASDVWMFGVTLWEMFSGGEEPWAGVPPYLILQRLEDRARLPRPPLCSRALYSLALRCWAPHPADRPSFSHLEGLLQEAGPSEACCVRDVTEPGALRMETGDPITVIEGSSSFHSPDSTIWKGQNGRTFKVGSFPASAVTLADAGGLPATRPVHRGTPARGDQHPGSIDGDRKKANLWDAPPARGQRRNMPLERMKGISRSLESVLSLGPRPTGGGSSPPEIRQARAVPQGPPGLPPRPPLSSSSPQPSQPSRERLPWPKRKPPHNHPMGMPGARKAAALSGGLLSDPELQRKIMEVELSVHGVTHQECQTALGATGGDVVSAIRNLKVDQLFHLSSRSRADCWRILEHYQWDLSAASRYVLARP
Sequence of Receptor-interacting serine/threonine-protein kinase 2 (Homo sapiens) (O43353 whole entry): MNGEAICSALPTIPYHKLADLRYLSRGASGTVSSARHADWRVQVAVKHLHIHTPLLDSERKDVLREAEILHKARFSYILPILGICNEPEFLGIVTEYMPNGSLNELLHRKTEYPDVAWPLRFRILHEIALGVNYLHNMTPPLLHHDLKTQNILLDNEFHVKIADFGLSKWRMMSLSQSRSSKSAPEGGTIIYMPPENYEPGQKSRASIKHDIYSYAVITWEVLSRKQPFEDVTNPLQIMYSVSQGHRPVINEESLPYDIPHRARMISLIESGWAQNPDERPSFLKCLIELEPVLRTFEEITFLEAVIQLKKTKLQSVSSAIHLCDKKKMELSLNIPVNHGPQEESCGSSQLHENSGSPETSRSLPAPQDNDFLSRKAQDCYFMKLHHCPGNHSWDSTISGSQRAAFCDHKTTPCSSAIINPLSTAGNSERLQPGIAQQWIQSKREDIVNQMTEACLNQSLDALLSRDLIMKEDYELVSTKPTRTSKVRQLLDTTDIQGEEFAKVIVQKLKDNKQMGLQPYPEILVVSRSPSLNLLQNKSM

Structure (SMILES)	residual activity [1] [%]	residual activity [2] [%]	residual activity [3] [%]	residual activity [4] [%]	residual activity [5] [%]	residual activity [6] [%]	residual activity [7] [%]	residual activity [8] [%]	inhibition [9] [%]	residual activity [10] [%]	residual activity [11] [%]	residual activity [12] [%]	residual activity [13] [%]	inhibition [14] [%]	residual activity [15] [%]	residual activity [16] [%]	residual activity [17] [%]	residual activity [18] [%]	residual activity [19] [%]	residual activity [20] [%]	also measured
O=C(Nc1cccnn1)N1CC(C/C=C/c2cncc(Oc3ccc(C(F)(F)F)cn3)n2)C1	96	80	90	100	100	96	72	91	0.68	80	80	93	100	-6.78	0	88	95	100	100	100	inhibition [21]: 20.7%; residual activity [22]: 100%; residual activity [23]: 73%; residual activity [24]: 73%; residual activity [25]: 85%; residual activity [26]: 100%
O=C(Nc1cccnn1)N1CCC(=Cc2cccc(Oc3ccc(C(F)(F)F)cn3)c2)CC1	100	76	100	100	100	78	100	76	34.5	100	100	94	100	29.5	92	100	100	98	100	88	inhibition [21]: 20.8%; residual activity [22]: 100%; residual activity [23]: 100%; residual activity [24]: 100%; residual activity [25]: 100%; residual activity [26]: 100%
